# Experimental data taken from PMC5080649 (CPT: Pharmacometrics & Systems Pharmacology, 2016).
# Like-named read-outs stand apart in the source and are kept apart here.
# Tests used:
# [1] = tested on: activated partial thromboplastin time; experiment: Activated partial thromboplastin time; format: in vivo, human; conditions: for EC50: Homo sapiens
# [2] = tested on: prothrombin time; experiment: Prothrombin time; format: in vivo, human; conditions: for EC50: Homo sapiens; for comparable dose of rivaroxaban in PT: Monte-Carlo simulation
# [3] = tested on: antithrombin III; experiment: Antithrombin III; format: in vivo, human; conditions: AT III activity; GCC4401C, SAD study; Linear model
# [4] = target: factor Xa (Homo sapiens, UniProt P00742); experiment: Antifactor Xa; format: in vivo
# [5] = target: factor Xa (Bos taurus, UniProt P00743); experiment: LMWH assay; format: in vivo, human; conditions: GCC4401C, SAD study
# [6] = target: coagulation factor X (Homo sapiens, UniProt P00742); experiment: Coagulation factor X; format: in vivo
# [7] = for CL renal: male, human, in vivo, GCC-4401C, plasma and urine PK modeling analysis from the SAD study
# [8] = target: factor X (Homo sapiens, UniProt P00742); experiment: Factor X chromogenic activity assay; format: in vivo; conditions: for comparable dose of rivaroxaban in FXCAA: Monte-Carlo simulation
# [9] = oral, cited from earlier work
# [10] = PT (INR), GCC4401C, SAD and S&MAD studies, Sigmoid Emax model
# [11] = Prothrombin time (seconds), GCC4401C, Sigmoid Emax model
# [12] = Antifactor Xa activity, GCC4401C, S&MAD study, Sigmoid Emax model
# [13] = Antifactor Xa activity, GCC4401C, S&MAD study, variance (CV %)
# [14] = Coagulation factor X, GCC4401C, SAD and S&MAD studies, variance (CV %)
# [15] = Coagulation factor X, GCC4401C, variance (CV %)
# [16] = GCC4401C oral, fasted, SAD and S&MAD studies, final model
# [17] = GCC4401C oral, fasted, SAD and S&MAD studies, variance (CV %)
# [18] = GCC-4401C oral, fasted, base model
# [19] = FXCAA, GCC4401C, S&MAD study, variance (CV %)
# [20] = Activated PT (seconds), Rivaroxaban, S&MAD, Sigmoid Emax model
# [21] = PT (INR), Rivaroxaban, S&MAD study, Simple Emax model
# [22] = Coagulation factor X, Rivaroxaban, S&MAD study, Sigmoid Emax model
# [23] = Coagulation factor X, Rivaroxaban, S&MAD study, variance (CV %)
# [24] = rivaroxaban 20 mg, fed, S&MAD study
# [25] = rivaroxaban 20 mg, fed, S&MAD study, variance (CV %)
# [26] = FXCAA, Rivaroxaban, S&MAD study, variance (CV %)
# coagulation factor X, sequence (P00742 235-488 limits assumed): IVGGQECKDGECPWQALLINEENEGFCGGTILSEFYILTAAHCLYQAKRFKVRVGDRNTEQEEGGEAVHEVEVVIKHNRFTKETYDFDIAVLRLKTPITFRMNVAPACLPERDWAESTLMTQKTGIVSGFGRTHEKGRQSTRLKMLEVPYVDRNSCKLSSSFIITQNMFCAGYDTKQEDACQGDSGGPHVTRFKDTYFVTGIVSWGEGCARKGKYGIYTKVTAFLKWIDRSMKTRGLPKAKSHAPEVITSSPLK
# coagulation factor X, sequence (P00742 41-179 limits assumed): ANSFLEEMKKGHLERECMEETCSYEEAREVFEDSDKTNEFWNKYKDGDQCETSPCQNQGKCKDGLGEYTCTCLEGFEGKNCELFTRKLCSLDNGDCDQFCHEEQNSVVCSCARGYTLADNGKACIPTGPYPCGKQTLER
# factor Xa (Homo sapiens, UniProt P00742), sequence (P00742 235-488 limits assumed): as the sequence (P00742 235-488 limits assumed) above
# factor Xa (Homo sapiens, UniProt P00742), sequence (P00742 41-179 limits assumed): as the sequence (P00742 41-179 limits assumed) above
# factor X, sequence (P00742 235-488 limits assumed): as the sequence (P00742 235-488 limits assumed) above
# factor X, sequence (P00742 41-179 limits assumed): as the sequence (P00742 41-179 limits assumed) above
structure (smiles),measurement,setting,value
"CS(=O)(=O)O.O=C(NC[C@H]1CN(c2ccc(N3CCNC=N3)cc2)C(=O)O1)c1ccc(Cl)s1 [GCC‐4401C, (S)−5‐chloro‐N‐((3‐(4‐(5,6‐dihydro‐1,2,4‐triazin‐1(4H)‐yl)phenyl)−2‐oxooxazolidin‐5‐yl)methyl)thiophene‐2‐carboxamide methanesulfonate]","Emax, SAD","[1]; Activated PT (seconds), GCC4401C, SAD study, Sigmoid Emax model",16.9 s
same,"Emax, SAD/MAD","[1]; Activated PT (seconds), GCC4401C, SAD/MAD study, Sigmoid Emax model",20.4 s
same,γ (shape parameter),"[1]; Activated PT (seconds), GCC4401C, Sigmoid Emax model",1.37
same,EC50,[1],0.573 µg/mL
same,EC50,"[2]; read-out: EC50, SAD, PT (INR), GCC4401C, SAD study, Sigmoid Emax model",0.426 µg/mL
same,EC50,"[2]; read-out: EC50, SAD, Prothrombin time (seconds), GCC4401C, SAD study, Sigmoid Emax model",0.563 µg/mL
same,EC50,"[2]; read-out: EC50, SAD/MAD, PT (INR), GCC4401C, SAD/MAD study, Sigmoid Emax model",1.35 µg/mL
same,EC50,"[2]; read-out: EC50, SAD/MAD, Prothrombin time (seconds), GCC4401C, SAD/MAD study, Sigmoid Emax model",1.45 µg/mL
same,comparable dose of rivaroxaban in PT,[2]; GCC-4401C 10 mg,30 to 40 mg
same,comparable dose of rivaroxaban in PT,[2]; GCC-4401C 20 mg,~40 mg
same,Emax,[2]; [10],1.32 INR
same,γ (shape parameter),[2]; [10],1.23
same,Emax,[2]; [11],15.2 s
same,γ (shape parameter),[2]; [11],1.16
same,SLOPE,[3],0.006
same,EC50,[4],1350 nM
same,Emax,[4]; [12],3.24 IU/mL
same,γ (shape parameter),[4]; [12],1.25
same,IIV + IOVEC50 (%),[4]; [13],0.005 (7.2)
same,"IIVEmax (CV, %)",[4]; [13],0.04 (20.8)
same,"IIVγ (CV, %)",[4]; [13],0.02 (13.4)
same,comparable dose of rivaroxaban in AFX assay,"[4]; Monte-Carlo simulation, GCC-4401C 10 mg",~20 mg
same,comparable dose of rivaroxaban in AFX,"[4]; Monte-Carlo simulation, GCC-4401C 20 mg",~40 mg
same,Emax,[5]; Simple Emax model,3.83
same,"IIVEC50 (CV, %)",[5]; variance (CV %),0.29 (57.4)
same,EC50,[6],5580 nM
same,Emax,"[6]; Coagulation factor X, GCC4401C, SAD and S&MAD studies, Sigmoid Emax model",81.2%
same,IIVEC50 (%),[6]; [14],0.98 (129.4)
same,"IIVEmax (CV, %)",[6]; [14],0.10 (33.1)
same,γSAD (shape parameter),"[6]; Coagulation factor X, GCC4401C, SAD study, Sigmoid Emax model",1.07
same,γSAD/MAD (shape parameter),"[6]; Coagulation factor X, GCC4401C, SAD/MAD study, Sigmoid Emax model",0.60
same,"IIVγ (CV, %)",[6]; [15],0.24 (51.8)
same,"IOVγ (CV, %)",[6]; [15],0.09 (30.1)
same,ALAG1 (delay in absorption),[7]; [16],0.20 h
same,D1 (duration of zero-order absorption),[7]; [16],0.395 h
same,"IIV + IOVALAG1 (CV, %)",[7]; [17],0.14 (38.8)
same,"IIV + IOVD1 (CV, %)",[7]; [17],1.49 (185.4)
same,"IIVCLNR (CV, %)",[7]; [17],0.046 (21.7)
same,"IIVCLR (CV, %)",[7]; [17],0.052 (23.2)
same,"IIVKa (CV, %)",[7]; [17],0.97 (128.0)
same,"IIVVc (CV, %)",[7]; [17],0.09 (30.5)
same,"IIVVp (CV, %)",[7]; [17],0.11 (33.8)
same,Θ for WT and Vc (power covariate effect of body weight on Vc),"[7]; GCC4401C, Typical Vc=Vc(75)*(WT/75)^Θ",0.67
same,Vc,[7]; [18],55.6 L
same,Vp,[7]; [18],25.9 L
same,average steady-state volume of distribution,[7]; [18],81.5 L
same,total clearance,"[7]; GCC-4401C oral, fasted, final model",12.0 L/h
same,CL renal,[7]; nonrenal clearance (CLNR),200 mL/min
same,CL renal,[7]; renal clearance (CLR),13.7 mL/min
same,EC50,[8],814 nM
same,γ (shape parameter),"[8]; FXCAA, GCC4401C, S&MAD study, Sigmoid Emax model",0.90
same,"IIVEmax (CV, %)",[8]; [19],0.01 (11.3)
same,"IIVγ (CV, %)",[8]; [19],0.06 (25.7)
same,Emax,"[8]; Factor X chromogenic activity assay, GCC4401C, S&MAD study, Sigmoid Emax model",99.8%
same,comparable dose of rivaroxaban in FXCAA,[8]; GCC-4401C 10 mg,30 to 40 mg
same,comparable dose of rivaroxaban in FXCAA,[8]; GCC-4401C 20 mg,~80 mg
"O=C(NC[C@H]1CN(c2ccc(N3CCOCC3=O)cc2)C(=O)O1)c1ccc(Cl)s1 [rivaroxaban, reference compound]",Emax,[1]; [20],12.4 s
same,γ (shape parameter),[1]; [20],0.94
same,EC50,[1],0.135 µg/mL
same,EC50,[2]; [21],0.434 µg/mL
same,Emax,[2]; [21],0.71 INR
same,Emax,"[2]; Prothrombin time (seconds), Rivaroxaban, S&MAD study, Simple Emax model",6.86 s
same,SLOPE,"[4]; Antifactor Xa activity, Rivaroxaban, S&MAD study, Linear model",0.005
same,"IIVSLOPE (CV, %)","[4]; Antifactor Xa activity, Rivaroxaban, S&MAD study, variance (CV %)",0.01 (10.8)
same,increase of Cmax with food,"[9]; >10 mg, with food vs fasting",76%
same,increase of mean area under concentration time curve with food,"[9]; >10 mg, with food vs fasting",39%
same,bioavailability,[9]; independent of food up to 10 mg,80–100%
same,Emax,[6]; [22],42.9%
same,γ (shape parameter),[6]; [22],0.90
same,"IIVEC50 (CV, %)",[6]; [23],0.33 (62.1)
same,"IOVEC50 (CV, %)",[6]; [23],0.25 (52.9)
same,D1 (duration of zero-order absorption),[7]; [24],1.07 h
same,γ (shape parameter in Weibull-type absorption model),[7]; [24],1.34
same,IIVCL (%),[7]; [25],0.015 (12.3)
same,"IIVKa (CV, %)",[7]; [25],3.3 (503.1)
same,"IIVVc (CV, %)",[7]; [25],0.01 (10.0)
same,"IIVVp (CV, %)",[7]; [25],0.06 (25.7)
same,Emax,"[8]; FXCAA, Rivaroxaban, S&MAD study, Simple Emax model",112.0%
same,"IIVEC50 (CV, %)",[8]; [26],0.07 (26.9)
same,"IOVEC50 (CV, %)",[8]; [26],0.01 (8.2)
